Results reported in patent US20260242371A1, “LIPID PRODRUGS OF BROM[…] USES THEREOF” (priority 2023, published 2026).

molecular target: T1, recombinant human monoacylglyceride lipase (rhMAGL) (Homo sapiens, UniProt Q99685); assay: In vitro monoglyceride stability of lipid prodrugs with lipoprotein lipase and rhMAGL; format: in vitro ADME; details: 50 μM prodrug, 10 mg/mL BSA, LPL 300 units/mL, 180 vs 30 minutes, 37° C., scale −10 to 10
T1 sequence (Q99685 1-303): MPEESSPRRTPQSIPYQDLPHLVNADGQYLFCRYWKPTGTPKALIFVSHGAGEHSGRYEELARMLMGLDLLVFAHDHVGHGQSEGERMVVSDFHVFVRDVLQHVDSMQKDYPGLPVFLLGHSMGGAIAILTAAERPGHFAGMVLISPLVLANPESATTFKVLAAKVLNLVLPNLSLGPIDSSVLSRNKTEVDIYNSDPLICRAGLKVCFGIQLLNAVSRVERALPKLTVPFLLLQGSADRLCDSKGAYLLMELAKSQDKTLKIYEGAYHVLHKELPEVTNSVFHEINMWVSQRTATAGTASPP
Experimental: The stability of lipid prodrugs of 2-bromo-LSD was evaluated in the presence or absence of recombinant human monoacylglyceride lipase (rhMAGL). 50 µM of prodrug was incubated in 10 mg/mL BSA supplemented with lipoprotein lipase (300 units/mL) and rhMAGL (0-0.5 μg/mL). The concentration of MAGL may be adjusted based on observed activity. Reactions were initiated via the addition of prodrug and incubated at 37° C. for 180 minutes. Aliquots were removed at 30, 60, 120, and 180 minutes and the reaction quenched with the addition of cold acetonitrile spiked with internal standard(s) (1:3 sample to acetonitrile). Samples were vortexed and centrifuged and the supernatant transferred and diluted in 0.1% formic acid water (1:3 supernatant to 0.1% formic acid water). Samples were analyzed via LC-MS. Monoglyceride stability was calculated using the following equations:
LPL MG Ratio=MG Peak Area at 180 minutes for LPL only/MG Peak area at 30 minutes for LPL only
rhMAGLMG Ratio=MG Peak Area at 180 minutes for LPLand rhMAGL/MG Peak Area at 30 minutes for LPLand rhMAGL
MG Stability=((rhMAGLMG Ratio−(1−LPL MG Ratio))*10
Stability is calculated on a scale of −10 to 10, with 10 representing 100% monoglyceride remaining (i.e., highest stability) and −10 representing 100% monoglyceride loss (i.e., lowest stability). Monoglyceride stability is represented by the following categories, wherein A is a stability score of 5 to 10, B is a stability score of 0 to 5, C is a stability score of −5 to 0, and D is a stability score of −5 to −10.

| SMILES | Monoacylglyceride Stability |
| --- | --- |
| CCCCCCCC/C=C\CCCCCCCC(=O)OCC(COC(=O)CCCCCCC/C=C\CCCCCCCC)OC(=O)CC(C)CC(=O)n1c(Br)c2c3c(cccc31)C1=C[C@@H](C(=O)N(CC)CC)CN(C)[C@@H]1C2 (stereo partly shown) [Compound I-1, 2BL-C5bMe-2-TG-oleate] | A (A is a stability score of 5 to 10) |
| CCCCCCCC/C=C\CCCCCCCC(=O)OCC(COC(=O)CCCCCCC/C=C\CCCCCCCC)OC(=O)CC(C)CCCCC(=O)n1c(Br)c2c3c(cccc31)C1=C[C@@H](C(=O)N(CC)CC)CN(C)[C@@H]1C2 (stereo partly shown) [Compound I-2, 2BL-C8bMe-2-TG-oleate] | A (A is a stability score of 5 to 10) |
| CCCCCCCC/C=C\CCCCCCCC(=O)OCC(COC(=O)CCCCCCC/C=C\CCCCCCCC)OC(=O)CC(C)CCCCCCC(C)CC(=O)n1c(Br)c2c3c(cccc31)C1=C[C@@H](C(=O)N(CC)CC)CN(C)[C@@H]1C2 (stereo partly shown) [Compound I-3, 2BL-C12b′bMe-2-TG-oleate] | B (B is a stability score of 0 to 5) |
| CCCCCCCC/C=C\CCCCCCCC(=O)OCC(COC(=O)CCCCCCC/C=C\CCCCCCCC)OC(=O)CC(C)CC(=O)OCn1c(Br)c2c3c(cccc31)C1=C[C@@H](C(=O)N(CC)CC)CN(C)[C@@H]1C2 (stereo partly shown) [Compound I-4, 2BL-ASI-C5bMe-2-TG-oleate] | D (D is a stability score of −5 to −10) |
| CCCCCCCC/C=C\CCCCCCCC(=O)OCC(COC(=O)CCCCCCC/C=C\CCCCCCCC)OC(=O)CC(C)CCCCC(=O)OCn1c(Br)c2c3c(cccc31)C1=C[C@@H](C(=O)N(CC)CC)CN(C)[C@@H]1C2 (stereo partly shown) [Compound I-5, 2BL-ASI-C8bMe-2-TG-oleate] | C (C is a stability score of −5 to 0) |
| CCCCCCCC/C=C\CCCCCCCC(=O)OCC(COC(=O)CCCCCCC/C=C\CCCCCCCC)OC(=O)CC(C)CCCCCCCCC(=O)OCn1c(Br)c2c3c(cccc31)C1=C[C@@H](C(=O)N(CC)CC)CN(C)[C@@H]1C2 (stereo partly shown) [Compound I-6, 2BL-ASI-C12bMe-2-TG-oleate] | C (C is a stability score of −5 to 0) |
| CCCCCCCC(=O)OCC(COC(=O)CCCCCCC)OC(=O)CC(C)CC(=O)OCOC(=O)n1c(Br)c2c3c(cccc31)C1=C[C@@H](C(=O)N(CC)CC)CN(C)[C@@H]1C2 (stereo partly shown) [Compound I-7, 2BL-CASI-C5bMe-2-TG-octanoate] | A (A is a stability score of 5 to 10) |
| CCCCCCCC(=O)OCC(COC(=O)CCCCCCC)OC(=O)CC(C)(C)CC(=O)OCOC(=O)n1c(Br)c2c3c(cccc31)C1=C[C@@H](C(=O)N(CC)CC)CN(C)[C@@H]1C2 [Compound I-9, 2BL-CASI-C5bbGMe-2-TG-octanoate] | A (A is a stability score of 5 to 10) |
| CCCCCCCC/C=C\CCCCCCCC(=O)OCC(COC(=O)CCCCCCC/C=C\CCCCCCCC)OC(=O)CC(C)CC(=O)OCCCC(=O)n1c(Br)c2c3c(cccc31)C1=C[C@@H](C(=O)N(CC)CC)CN(C)[C@@H]1C2 (stereo partly shown) [Compound I-14, 2BL-FSI4-C5bMe-2-TG-oleate] | A (A is a stability score of 5 to 10) |
| CCCCCCCC(=O)OCC(COC(=O)CCCCCCC)OC(=O)CC(C)(C)CC(=O)OCCCC(=O)n1c(Br)c2c3c(cccc31)C1=C[C@@H](C(=O)N(CC)CC)CN(C)[C@@H]1C2 [Compound I-15, 2BL-FSI4-C5bbGMe-2-TG-octanoate] | B (B is a stability score of 0 to 5) |
| CCCCCCCC(=O)OCC(COC(=O)CCCCCCC)OC(=O)CC(C)(C)CC(=O)OCCCCC(=O)n1c(Br)c2c3c(cccc31)C1=C[C@@H](C(=O)N(CC)CC)CN(C)[C@@H]1C2 [Compound I-16, 2BL-FSI5-C5bbGMe-2-TG-octanoate] | A (A is a stability score of 5 to 10) |
| CCCCCCCC/C=C\CCCCCCCC(=O)OCC(COC(=O)CCCCCCC/C=C\CCCCCCCC)OC(=O)CC(C)CC(=O)OCCCCC(=O)n1c(Br)c2c3c(cccc31)C1=C[C@@H](C(=O)N(CC)CC)CN(C)[C@@H]1C2 (stereo partly shown) [Compound I-17, 2BL-FSI5-C5bMe-2-TG-oleate] | A (A is a stability score of 5 to 10) |
| CCCCCCCC(=O)OCC(COC(=O)CCCCCCC)OC(=O)CC1(CC(=O)OCCCCC(=O)n2c(Br)c3c4c(cccc42)C2=C[C@@H](C(=O)N(CC)CC)CN(C)[C@@H]2C3)CC1 [Compound I-18, 2BL-FSI5-C5bcPr-2-TG-octanoate] | A (A is a stability score of 5 to 10) |
| CCCCCCCC(=O)OCC(COC(=O)CCCCCCC)OC(=O)CC(C)(C)CCC(=O)OCCCCC(=O)n1c(Br)c2c3c(cccc31)C1=C[C@@H](C(=O)N(CC)CC)CN(C)[C@@H]1C2 [Compound I-19, 2BL-FSI5-C6bbGMe-2-TG-octanoate] | A (A is a stability score of 5 to 10) |
| CCCCCCCC/C=C\CCCCCCCC(=O)OCC(COC(=O)CCCCCCC/C=C\CCCCCCCC)OC(=O)CC(C)CC(=O)Oc1ccc(Cn2c(Br)c3c4c(cccc42)C2=C[C@@H](C(=O)N(CC)CC)CN(C)[C@@H]2C3)cc1 (stereo partly shown) [Compound I-20, 2BL-PHB-C5bMe-2-TG-oleate] | A (A is a stability score of 5 to 10) |
| CCCCCCCC/C=C\CCCCCCCC(=O)OCC(COC(=O)CCCCCCC/C=C\CCCCCCCC)OC(=O)CC(C)CC(=O)Oc1ccc(COC(=O)n2c(Br)c3c4c(cccc42)C2=C[C@@H](C(=O)N(CC)CC)CN(C)[C@@H]2C3)cc1 (stereo partly shown) [Compound I-21, 2BL-CPHB-C5bMe-2-TG-oleate] | A (A is a stability score of 5 to 10) |
| CCCCCCCC(=O)OCC(COC(=O)CCCCCCC)OC(=O)CC(C)(C)CCC(=O)OCCCC(=O)n1c(Br)c2c3c(cccc31)C1=C[C@@H](C(=O)N(CC)CC)CN(C)[C@@H]1C2 [Compound I-22, 2BL-FSI4-C6bbGMe-2-TG-octanoate] | A (A is a stability score of 5 to 10) |
| CCCCCCCC(=O)OCC(COC(=O)CCCCCCC)OC(=O)CC(C)(C)CCC(=O)OCOC(=O)n1c(Br)c2c3c(cccc31)C1=C[C@@H](C(=O)N(CC)CC)CN(C)[C@@H]1C2 [Compound I-23, 2BL-CASI-C6bbGMe-2-TG-octanoate] | A (A is a stability score of 5 to 10) |
| CCCCCCCC/C=C\CCCCCCCC(=O)OCC(COC(=O)CCCCCCC/C=C\CCCCCCCC)OC(=O)CC(C)CCCCCCC(=O)n1c(Br)c2c3c(cccc31)C1=C[C@@H](C(=O)N(CC)CC)CN(C)[C@@H]1C2 (stereo partly shown) [Compound I-24, 2BL-C10bMe-2-TG-oleate] | A (A is a stability score of 5 to 10) |
| CCCCCCCC(=O)OCC(COC(=O)CCCCCCC)OC(=O)CC1(CC(=O)OCn2c(Br)c3c4c(cccc42)C2=C[C@@H](C(=O)N(CC)CC)CN(C)[C@@H]2C3)CC1 [Compound I-25, 2BL-ASI-C5bcPr-2-TG-octanoate] | D (D is a stability score of −5 to −10) |
| CCCCCCCC(=O)OCC(COC(=O)CCCCCCC)OC(=O)CC1(CC(=O)n2c(Br)c3c4c(cccc42)C2=C[C@@H](C(=O)N(CC)CC)CN(C)[C@@H]2C3)CC1 [Compound I-26, 2BL-C5bcPr-2-TG-octanoate] | A (A is a stability score of 5 to 10) |
| CCCCCCCC(=O)OCC(COC(=O)CCCCCCC)OC(=O)CC(C)(C)CCC(=O)OCn1c(Br)c2c3c(cccc31)C1=C[C@@H](C(=O)N(CC)CC)CN(C)[C@@H]1C2 [Compound I-27, 2BL-ASI-C6bbGMe-2-TG-octanoate] | D (D is a stability score of −5 to −10) |
| CCCCCCCC(=O)OCC(COC(=O)CCCCCCC)OC(=O)CC(C)(C)CC(=O)OCn1c(Br)c2c3c(cccc31)C1=C[C@@H](C(=O)N(CC)CC)CN(C)[C@@H]1C2 [Compound I-28, 2BL-ASI-C5bbGMe-2-TG-octanoate] | D (D is a stability score of −5 to −10) |
| CCCCCCCC(=O)OCC(COC(=O)CCCCCCC)OC(=O)CC1(CC(=O)OCOC(=O)n2c(Br)c3c4c(cccc42)C2=C[C@@H](C(=O)N(CC)CC)CN(C)[C@@H]2C3)CC1 [I-9′, 2BL-CASI-C5bcPr-2-TG-octanoate] | A (A is a stability score of 5 to 10) |
| CCCCCCCC(=O)OCC(COC(=O)CCCCCCC)OC(=O)CC1(CC(=O)OCCCC(=O)n2c(Br)c3c4c(cccc42)C2=C[C@@H](C(=O)N(CC)CC)CN(C)[C@@H]2C3)CC1 [I-15′, 2BL-FSI4-C5bcPr-2-TG-octanoate] | A (A is a stability score of 5 to 10) |
